Results from patent publication US10160747B2, “Compounds and methods for kinase modulation, and indications therefor” (Plexxikon Inc., priority 2016, dated 2018).

Legend:
[1] = tested on: MOLM-14 F691L (endogenous FLT3 ITD and transfected FLT3 F691L); experiment: MOLM-14 F691L cell proliferation assay (CellTiter-Glo); type: cell-based; settings: Homo sapiens, MOLM-14, 72 h; 3 d growth, GMean
In short: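 MOLM-14 derivatives carrying D835Y or F691L, selected under escalating AC220, were seeded at 1×10^4 cells/well and exposed to an 8-point 1:3 compound series (1 to 0.00046 μM, 0.2% DMSO final) for three days at 37° C., 5% CO2. CellTiter-Glo luminescence (ATP content) versus concentration gave IC50.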

FLT3-ITD = biological target: T1, FLT3-ITD (Homo sapiens, UniProt P36888); experiment: FLT3-ITD recombinant enzyme kinase assay (AlphaScreen); type: biochemical; settings: 8 pt; read-out: FLT3_ITD 8 pt: IC50
T1 sequence (P36888 1-993): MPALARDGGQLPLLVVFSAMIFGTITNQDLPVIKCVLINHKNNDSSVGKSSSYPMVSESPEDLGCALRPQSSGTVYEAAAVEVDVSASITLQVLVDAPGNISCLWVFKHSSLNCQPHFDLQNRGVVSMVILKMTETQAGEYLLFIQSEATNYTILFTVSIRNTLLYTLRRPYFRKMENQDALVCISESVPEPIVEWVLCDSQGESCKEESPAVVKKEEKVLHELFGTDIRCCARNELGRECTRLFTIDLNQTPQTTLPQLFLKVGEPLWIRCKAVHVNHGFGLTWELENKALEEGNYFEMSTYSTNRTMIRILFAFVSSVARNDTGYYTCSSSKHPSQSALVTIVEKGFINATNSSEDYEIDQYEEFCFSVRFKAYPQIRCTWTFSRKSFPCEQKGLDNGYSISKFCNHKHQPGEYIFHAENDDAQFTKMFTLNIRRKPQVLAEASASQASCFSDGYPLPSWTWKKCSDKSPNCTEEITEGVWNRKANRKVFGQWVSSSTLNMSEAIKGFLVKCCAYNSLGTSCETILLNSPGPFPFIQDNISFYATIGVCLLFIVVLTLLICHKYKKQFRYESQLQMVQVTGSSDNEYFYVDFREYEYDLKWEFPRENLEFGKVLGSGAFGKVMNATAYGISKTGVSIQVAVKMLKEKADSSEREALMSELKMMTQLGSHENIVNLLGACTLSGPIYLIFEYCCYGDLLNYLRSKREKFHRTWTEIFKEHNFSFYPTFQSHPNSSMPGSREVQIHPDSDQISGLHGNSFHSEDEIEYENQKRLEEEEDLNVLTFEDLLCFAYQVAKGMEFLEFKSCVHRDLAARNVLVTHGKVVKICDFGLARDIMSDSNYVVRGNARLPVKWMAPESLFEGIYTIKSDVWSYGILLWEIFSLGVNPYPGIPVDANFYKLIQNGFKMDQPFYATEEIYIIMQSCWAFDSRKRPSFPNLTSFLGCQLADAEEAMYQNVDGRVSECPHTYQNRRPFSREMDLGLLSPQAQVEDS
In short: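 Recombinant kinase phosphorylates 30 nM biotinylated poly(Glu4-Tyr) peptide; ATP is 10 μM for FLT3-ITD and FLT3-D835Y, 100 μM for c-KIT. Phosphotyrosine detected by AlphaScreen (streptavidin donor, PY20 acceptor beads, 10 μg/mL), 580 nm signal after 680 nm excitation; IC50 from signal decrease.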

| IC50 [1] | IC50 (FLT3-ITD) | Structure (SMILES) |
| --- | --- | --- |
| 0.0001 to 10 µM | 0.0001 to 10 µM | COc1ncc(NC(=O)Cc2ccc(-c3cnc4[nH]nc(NC(=O)C(F)(F)F)c4c3)cc2)cc1C(F)(F)F [Compound P-0215, 2,2,2-trifluoro-N-[5-[4-[2-[[6-methoxy-5-(trifluoromethyl)-3-pyridyl]amino]-2-oxo-ethyl]phenyl]-1H-pyrazolo[3,4-b]pyridin-3-yl]acetamide] |
| 0.0001 to 10 µM | 0.0001 to 10 µM | COc1ncc(NC(=O)Cc2ccc(-c3cnc4[nH]nc(N)c4c3)cc2)cc1C(F)(F)F [Compound P-0216, 2-(4-(3-amino-1H-pyrazolo[3,4-b]pyridin-5-yl)phenyl)-N-(6-methoxy-5-(trifluoromethyl)pyridin-3-yl)acetamide] |
| 0.0001 to 10 µM | 0.0001 to 10 µM | CCOc1n[nH]c2ncc(-c3ccc(CC(=O)Nc4cnc(C)c(C(F)(F)F)c4)cc3)cc12 [Compound P-0217, 2-[4-(3-ethoxy-1H-pyrazolo[3,4-b]pyridin-5-yl)phenyl]-N-[6-methyl-5-(trifluoromethyl)-3-pyridyl]acetamide] |
| 0.0001 to 10 µM | 0.0001 to 10 µM | COc1n[nH]c2ncc(-c3ccc(CC(=O)Nc4cnc(C)c(C(F)(F)F)c4)cc3)cc12 [Compound P-0218, 2-[4-(3-methoxy-1H-pyrazolo[3,4-b]pyridin-5-yl)phenyl]-N-[6-methyl-5-(trifluoromethyl)-3-pyridyl]acetamide] |
| 0.0001 to 10 µM | 0.0001 to 10 µM | COc1ncc(NC(=O)Cc2ccc(-c3cnc4[nH]c(C#CC(C)(C)C)cc4c3)cc2)cc1C(F)(F)F [Compound P-0219, 2-[4-[2-(3,3-dimethylbut-1-ynyl)-1H-pyrrolo[2,3-b]pyridin-5-yl]phenyl]-N-[6-methoxy-5-(trifluoromethyl)-3-pyridyl]acetamide] |
| 0.0001 to 10 µM | 0.0001 to 10 µM | Cc1ncc(NC(=O)Cc2ccc(-c3cnc4[nH]c(C#CC(C)(C)O)cc4c3)cc2)cc1C(F)(F)F [Compound P-0220, 2-[4-[2-(3-hydroxy-3-methyl-but-1-ynyl)-1H-pyrrolo[2,3-b]pyridin-5-yl]phenyl]-N-[6-methyl-5-(trifluoromethyl)-3-pyridyl]acetamide] |
| 0.0001 to 10 µM | 0.0001 to 10 µM | COc1ncc(NC(=O)Cc2ccc(-c3cnc(Nc4cn[nH]c4C)nc3)cc2)cc1C(F)(F)F [Compound P-0221, N-[6-methoxy-5-(trifluoromethyl)-3-pyridyl]-2-[4-[2-[(5-methyl-1H-pyrazol-4-yl)amino]pyrimidin-5-yl]phenyl]acetamide] |
| 0.0001 to 10 µM | 0.0001 to 10 µM | COCCn1cc(Nc2ncc(-c3ccc(CC(=O)Nc4cc(C(F)(F)F)ccn4)cc3)cn2)cn1 [Compound P-0222, 2-[4-[2-[[1-(2-methoxyethyl)pyrazol-4-yl]amino]pyrimidin-5-yl]phenyl]-N-[4-(trifluoromethyl)-2-pyridyl]acetamide] |
| 0.0001 to 10 µM | 0.0001 to 10 µM | COc1ncc(NC(=O)Cc2ccc(-c3cnc4[nH]c(C#Cc5cncn5C)cc4c3)cc2)cc1C(F)(F)F [Compound P-0227, N-[6-methoxy-5-(trifluoromethyl)-3-pyridyl]-2-[4-[2-[2-(3-methylimidazol-4-yl)ethynyl]-1H-pyrrolo[2,3-b]pyridin-5-yl]phenyl]acetamide] |
| 0.0001 to 10 µM | 0.0001 to 10 µM | Cc1nn(C)cc1Nc1ncc(-c2ccc(CC(=O)Nc3cnc(C)c(C(F)(F)F)c3)cc2)cn1 [Compound P-0228, 2-[4-[2-[(1,3-dimethylpyrazol-4-yl)amino]pyrimidin-5-yl]phenyl]-N-[6-methyl-5-(trifluoromethyl)-3-pyridyl]acetamide] |
| 0.0001 to 10 µM | 0.0001 to 10 µM | Cc1ncc(NC(=O)Cc2ccc(-c3cnc(Nc4cnn(C)c4C)nc3)cc2)cc1C(F)(F)F [Compound P-0229, 2-[4-[2-[(1,5-dimethylpyrazol-4-yl)amino]pyrimidin-5-yl]phenyl]-N-[6-methyl-5-(trifluoromethyl)-3-pyridyl]acetamide] |
| 0.0001 to 10 µM | 0.0001 to 10 µM | COc1ncc(NC(=O)Cc2ccc(-c3cnc4[nH]nc(Cl)c4c3)cc2)cc1C(F)(F)F [Compound P-0230, 2-[4-(3-chloro-1H-pyrazolo[3,4-b]pyridin-5-yl)phenyl]-N-[6-methoxy-5-(trifluoromethyl)-3-pyridyl]acetamide] |
| 0.0001 to 10 µM | 0.0001 to 10 µM | O=C(Cc1ccc(-c2cnc(Nc3cnn(C4CC4)c3)nc2)cc1)Nc1cncc(C(F)(F)F)c1 [Compound P-0231, 2-[4-[2-[(1-cyclopropylpyrazol-4-yl)amino]pyrimidin-5-yl]phenyl]-N-[5-(trifluoromethyl)-3-pyridyl]acetamide] |
| 0.0001 to 10 µM | 0.0001 to 10 µM | Cc1ncc(NC(=O)Cc2ccc(-c3cnc(Nc4cnn(C5CC5)c4)nc3)cc2)cc1C(F)(F)F [Compound P-0232, 2-[4-[2-[(1-cyclopropylpyrazol-4-yl)amino]pyrimidin-5-yl]phenyl]-N-[6-methyl-5-(trifluoromethyl)-3-pyridyl]acetamide] |
| 0.0001 to 10 µM | 0.0001 to 10 µM | O=C(Cc1ccc(-c2cnc(Nc3cnn(C4CC4)c3)nc2)cc1)Nc1cnc(Cl)c(C(F)(F)F)c1 [Compound P-0233, N-[6-chloro-5-(trifluoromethyl)-3-pyridyl]-2-[4-[2-[(1-cyclopropylpyrazol-4-yl)amino]pyrimidin-5-yl]phenyl]acetamide] |
| 0.0001 to 10 µM | 0.0001 to 10 µM | COc1ncc(NC(=O)Cc2ccc(-c3cnc(Nc4cnn(C5CC5)c4)nc3)cc2)cc1C(F)(F)F [Compound P-0234, 2-[4-[2-[(1-cyclopropylpyrazol-4-yl)amino]pyrimidin-5-yl]phenyl]-N-[6-methoxy-5-(trifluoromethyl)-3-pyridyl]acetamide] |
| 0.0001 to 10 µM | 0.0001 to 10 µM | O=C(Cc1ccc(-c2cnc(Nc3cnn(C4CC4)c3)nc2)cc1)Nc1ccc(C(F)(F)F)nc1 [Compound P-0235, 2-[4-[2-[(1-cyclopropylpyrazol-4-yl)amino]pyrimidin-5-yl]phenyl]-N-[6-(trifluoromethyl)-3-pyridyl]acetamide] |
| 0.0001 to 10 µM | 0.0001 to 10 µM | O=C(Cc1ccc(-c2cnc(Nc3cnn(C4CC4)c3)nc2)cc1)Nc1ccc(C(F)(F)F)cn1 [Compound P-0236, 2-[4-[2-[(1-cyclopropylpyrazol-4-yl)amino]pyrimidin-5-yl]phenyl]-N-[5-(trifluoromethyl)-2-pyridyl]acetamide] |
| 0.0001 to 10 µM | 0.0001 to 10 µM | O=C(Cc1ccc(-c2cnc(Nc3cnn(C4CC4)c3)nc2)cc1)Nc1cc(C(F)(F)F)ccn1 [Compound P-0237, 2-[4-[2-[(1-cyclopropylpyrazol-4-yl)amino]pyrimidin-5-yl]phenyl]-N-[4-(trifluoromethyl)-2-pyridyl]acetamide] |
| 0.0001 to 10 µM | 0.0001 to 10 µM | O=C(Cc1ccc(-c2cnc(Nc3cnn(C4CC4)c3)nc2)cc1F)Nc1cncc(C(F)(F)F)c1 [Compound P-0238, 2-[4-[2-[(1-cyclopropylpyrazol-4-yl)amino]pyrimidin-5-yl]-2-fluoro-phenyl]-N-[5-(trifluoromethyl)-3-pyridyl]acetamide] |
| 0.0001 to 10 µM | 0.0001 to 10 µM | Cc1ncc(NC(=O)Cc2ccc(-c3cnc(Nc4cnn(C5CC5)c4)nc3)cc2F)cc1C(F)(F)F [Compound P-0239, 2-[4-[2-[(1-cyclopropylpyrazol-4-yl)amino]pyrimidin-5-yl]-2-fluoro-phenyl]-N-[6-methyl-5-(trifluoromethyl)-3-pyridyl]acetamide] |
| 0.0001 to 10 µM | 0.0001 to 10 µM | O=C(Cc1ccc(-c2cnc(Nc3cnn(C4CC4)c3)nc2)cc1F)Nc1cnc(Cl)c(C(F)(F)F)c1 [Compound P-0240, N-[6-chloro-5-(trifluoromethyl)-3-pyridyl]-2-[4-[2-[(1-cyclopropylpyrazol-4-yl)amino]pyrimidin-5-yl]-2-fluoro-phenyl]acetamide] |
| 0.0001 to 10 µM | 0.0001 to 10 µM | COc1ncc(NC(=O)Cc2ccc(-c3cnc(Nc4cnn(C5CC5)c4)nc3)cc2F)cc1C(F)(F)F [Compound P-0241, 2-[4-[2-[(1-cyclopropylpyrazol-4-yl)amino]pyrimidin-5-yl]-2-fluoro-phenyl]-N-[6-methoxy-5-(trifluoromethyl)-3-pyridyl]acetamide] |
